Assay results published in PMC6804140, “Peptidomic Approach for the Identification of Peptides with Potential Antioxidant and Anti-Hyperthensive Effects Derived From Asparagus By-Products” (Molecules, 2019).
Ends that are not written are not given here.

Biological target: T1, ACE from rabbit lung (Oryctolagus cuniculus, UniProt P12822)
T1 construct: ACE from rabbit lung; purchased Sigma-Aldrich (St. Louis, MO, USA); host or cells: rabbit lung tissue
T1 sequence (P12822 34-1310): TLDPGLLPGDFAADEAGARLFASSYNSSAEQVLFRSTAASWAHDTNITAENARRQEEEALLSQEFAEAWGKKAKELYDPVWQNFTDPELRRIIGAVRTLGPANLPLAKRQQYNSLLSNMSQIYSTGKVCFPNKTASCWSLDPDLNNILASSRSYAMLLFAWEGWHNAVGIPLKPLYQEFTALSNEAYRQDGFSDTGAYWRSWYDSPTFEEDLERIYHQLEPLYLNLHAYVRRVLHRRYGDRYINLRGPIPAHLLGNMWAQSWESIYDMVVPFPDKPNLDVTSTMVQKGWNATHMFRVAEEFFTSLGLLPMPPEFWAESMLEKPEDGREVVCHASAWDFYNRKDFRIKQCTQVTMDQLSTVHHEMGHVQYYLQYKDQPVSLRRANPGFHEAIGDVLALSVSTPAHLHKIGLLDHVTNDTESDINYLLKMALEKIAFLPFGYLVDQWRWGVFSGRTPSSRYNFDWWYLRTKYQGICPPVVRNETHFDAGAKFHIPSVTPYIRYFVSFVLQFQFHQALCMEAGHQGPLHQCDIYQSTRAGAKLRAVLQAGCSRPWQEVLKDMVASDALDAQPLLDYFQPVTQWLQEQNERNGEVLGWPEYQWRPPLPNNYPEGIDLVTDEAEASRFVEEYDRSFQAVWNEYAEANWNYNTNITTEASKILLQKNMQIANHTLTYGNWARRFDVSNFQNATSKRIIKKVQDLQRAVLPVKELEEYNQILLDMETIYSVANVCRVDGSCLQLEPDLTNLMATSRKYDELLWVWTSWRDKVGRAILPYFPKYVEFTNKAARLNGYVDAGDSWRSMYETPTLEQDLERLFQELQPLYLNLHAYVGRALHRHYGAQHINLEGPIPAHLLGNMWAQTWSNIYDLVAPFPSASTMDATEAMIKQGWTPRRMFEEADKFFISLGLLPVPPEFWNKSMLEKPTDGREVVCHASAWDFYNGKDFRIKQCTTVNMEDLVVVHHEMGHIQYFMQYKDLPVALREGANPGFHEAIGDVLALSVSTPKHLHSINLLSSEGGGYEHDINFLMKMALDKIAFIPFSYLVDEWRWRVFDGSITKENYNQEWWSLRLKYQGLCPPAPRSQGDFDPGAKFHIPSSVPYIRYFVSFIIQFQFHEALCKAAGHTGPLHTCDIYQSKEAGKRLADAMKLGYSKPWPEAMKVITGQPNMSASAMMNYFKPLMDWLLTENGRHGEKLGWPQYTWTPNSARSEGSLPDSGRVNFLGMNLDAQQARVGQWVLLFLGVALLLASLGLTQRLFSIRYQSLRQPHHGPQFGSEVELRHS
Assay: ACE-inhibitory assay
Type: biochemical
Conditions: synthetic peptide (90%); pH 8.3, 37 °C, 90 min, 228 nm; fit Origin 9.0; ± SD in Table 1; read-out: EC50 value, ACE inhibition assay

Row | Substance | EC50 [µM]
1 | PDWFLLL [PDWFLLL] | 5.74 ± 2.35
2 | ASQSIWLPGWL [ASQSIWLPGWL] | 4.02 ± 1.79
